Experimental data published in patent US20250325501A1, “A SPHINGOSINE-1-PHOSPHATE RECEPTOR (S1PR) MODULATOR FOR USE IN TREATING A PATIENT SUFFERING FROM ALZHEIMER'S DEMENTIA” (Otto-von-Guericke-Universitaet Magdeburg, priority 2022, published 2025).

Assays:
[1] = test system: APP/PS1 Alzheimer's disease (AD) mouse model; test: Dendritic spine density analysis (Golgi-Cox staining) in APP/PS1 AD mice; assay type: in vivo; conditions: for spine deficits in CA3 pyramidal neurons and dentate gyrus granule cells: 15-month-old male AD mice
[2] = test system: APP/PS1 Alzheimer's disease (AD) mouse model; test: Contextual fear learning in AD mice; assay type: in vivo; conditions: 15-month-old male AD mice; 3.0 mg/kg/2nd day for 1 month; FIG. 3
Procedure: The therapeutic effect of fingolimod (FTY720) as an example for an S1PR modulator for use in the treatment of Alzheimer's disease was tested in an established double transgenic amyloid precursor protein/presenilin-1 (APP/PS1) Alzheimer's disease (AD) mouse model that starts to develop amyloid-β (Aβ) pathology in the neocortex and hippocampus at two and four months of age, respectively. This AD mouse model is particularly close to human AD pathology. Impaired LTP (long-term potentiation) at Schaffer collateral CA1 synapses in acute slices ex vivo is observed at five months in these mice and becomes detectable with in vivo recordings beyond six months of age. Moreover, hippocampus-dependent learning deficits in this APP/PS1 mouse model become apparent five to eight months after birth. […]
The analyses of the animals comprises dendritic spine density analysis, LTP recordings, Morris water maze spatial learning and memory testing, contextual fear condition training and memory testing, immunohistological stainings of microgliosis and astrogliosis, biochemical brain-derived neurotrophic factor (BDNF) quantification and downstream TrkB receptor (a high affinity BDNF receptor) signaling, and statistical analysis.

[3] = CD11c+/CD14+ age/AD-associated microglia in the cortex of AD mice; assay type: in vivo, mouse; conditions: 15-month-old male AD mice; 1.0 mg/kg/2nd day for 1 month; FIG. 8
Procedure: (§1) The therapeutic effect of fingolimod (FTY720) as an example for an S1PR modulator for use in the treatment of Alzheimer's disease was tested in an established double transgenic amyloid precursor protein/presenilin-1 (APP/PS1) Alzheimer's disease (AD) mouse model that starts to develop amyloid-β (Aβ) pathology in the neocortex and hippocampus at two and four months of age, respectively. This AD mouse model is particularly close to human AD pathology. Impaired LTP (long-term potentiation) at Schaffer collateral CA1 synapses in acute slices ex vivo is observed at five months in these mice and becomes detectable with in vivo recordings beyond six months of age. Moreover, hippocampus-dependent learning deficits in this APP/PS1 mouse model become apparent five to eight months after birth.
(§2) Male APP/PS1 mice and littermate controls (wild-type healthy mice) were treated with intraperitoneal (i.p.) injections of fingolimod (FTY720; dissolved in 3% DMSO, 1.0 mg/kg or 3.0 mg/kg body weight) every second day for 1 to 2 months.
(§3) Substance A: Control, Substance B: FTY720 (1.0 mg/kg/2nd day) for 1 month.

[4] = test system: CD11c+/CD14+ age/AD-associated microglia; test: as above; assay type: in vivo, mouse; conditions: 15-month-old male AD mice; 1.0 mg/kg/2nd day for 1 month; FIG. 9
Procedure: as §1, §2, §3

SMILES | spine deficits in CA1 pyramidal neurons ([1]; 6-7-month-old male AD mice, low dose 0.2 mg/kg/2nd day for 1 month, FIG. 6) | spine deficits in CA3 pyramidal neurons and dentate gyrus granule cells ([1]; 1.0 mg/kg/2nd day for 1 month, near and distant to plaques, FIG. 4, 1 mg/kg) | spine deficits in CA3 pyramidal neurons and dentate gyrus granule cells ([1]; 1.0 mg/kg/2nd day for 1 month, near and distant to plaques, FIG. 4, listed as FTY, 1 mg/kg) | spine deficits in CA3 pyramidal neurons and dentate gyrus granule cells ([1]; 3.0 mg/kg/2nd day for 1 month, FIG. 5) | number of synaptic spines versus same-aged healthy mice (wild-type littermates) ([1]; AD mice at 6-7 months and 15-16 months, short-term treatment) | spine deficits in dendrites close to plaques ([1]; APP/PS1 mice, CA1 secondary apical dendrites <50 μm from nearest plaque, FIGS. 1 and 2) | spine deficits in dendrites distant to plaques ([1]; APP/PS1 mice, CA1 secondary apical dendrites >50 μm from closest plaque, FIGS. 1 and 2) | spine deficits in CA1 pyramidal neurons ([1]; male 15-month-old AD model mice, FIG. 1) | deficit in contextual fear learning [2] | increased frequency of CD11c+/CD14+ age/AD-associated microglia in the cortex [3] | increased number of CD11c+/CD14+ age/AD-associated microglia in the cortex [4] | spine deficits in CA1 pyramidal neurons ([1]; aged (16-month-old) male AD mice, 1 mg/kg via drinking water for 1 month, starting at 15 months, FIG. 7)
CCCCCCCCc1ccc(CCC(N)(CO)CO)cc1 [Fingolimod] | restored spine deficits | restored spine deficits | completely rescued spine decrease near and distant to AB plaques | restored spine deficits | restored at both ages (6-7 months and 15-16 months) to the level of same-aged healthy mice | significant amelioration of spine deficits | complete rescue of spine deficits | restored spine deficits | restored the deficit | reduces the increased frequency | reduces the increased number | 
CC(C)Oc1ccc(-c2nc(-c3cccc4c3CC[C@@H]4NCCO)no2)cc1C#N [Ozanimod] |  |  |  |  |  |  |  |  |  |  |  | very similar capacity to restore spine deficits
